Read-outs that look alike come from different tables or passages of the source.
Key:
DAT [1] = biological target: T1, DAT (Rattus norvegicus, UniProt P23977); test: biochemical; assay type: binding
T1 construct: their brains removed to an ice-cooled dish for dissection of the caudate putamen; from tissue; host or cells: rat caudate putamen homogenate

muscarinic M1 receptor [2] = biological target: T2, muscarinic M1 receptor (Rattus norvegicus, UniProt P08482); test: [3H]Pirenzepine Binding Assay, rat brain membranes
T2 construct: Membranes from frozen rat brains excluding cerebellum were thawed; from tissue; host or cells: rat brain (excluding cerebellum) membranes
T2 sequence (P08482 1-460): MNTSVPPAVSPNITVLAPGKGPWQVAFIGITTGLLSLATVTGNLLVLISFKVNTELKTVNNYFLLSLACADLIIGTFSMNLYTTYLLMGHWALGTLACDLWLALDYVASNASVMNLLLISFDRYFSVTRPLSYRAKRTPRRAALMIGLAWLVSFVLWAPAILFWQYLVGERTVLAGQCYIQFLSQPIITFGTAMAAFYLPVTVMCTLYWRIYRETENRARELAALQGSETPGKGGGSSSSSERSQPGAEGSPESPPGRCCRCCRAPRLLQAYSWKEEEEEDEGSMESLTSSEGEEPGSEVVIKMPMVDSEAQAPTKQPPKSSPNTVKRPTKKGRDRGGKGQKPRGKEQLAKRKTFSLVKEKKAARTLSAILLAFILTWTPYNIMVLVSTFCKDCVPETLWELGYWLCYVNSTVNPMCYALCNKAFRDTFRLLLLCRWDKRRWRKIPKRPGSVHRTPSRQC

NET [3] = assay type: binding, rat
NET [4] = biological target: T3, NET (Rattus norvegicus, UniProt Q63380); assay type: binding; conditions: read-out: NET [3H]nisoxetine Ki ± SEM; rat brain membranes; incubation time 1 h
T3 sequence (Q63380 1-617): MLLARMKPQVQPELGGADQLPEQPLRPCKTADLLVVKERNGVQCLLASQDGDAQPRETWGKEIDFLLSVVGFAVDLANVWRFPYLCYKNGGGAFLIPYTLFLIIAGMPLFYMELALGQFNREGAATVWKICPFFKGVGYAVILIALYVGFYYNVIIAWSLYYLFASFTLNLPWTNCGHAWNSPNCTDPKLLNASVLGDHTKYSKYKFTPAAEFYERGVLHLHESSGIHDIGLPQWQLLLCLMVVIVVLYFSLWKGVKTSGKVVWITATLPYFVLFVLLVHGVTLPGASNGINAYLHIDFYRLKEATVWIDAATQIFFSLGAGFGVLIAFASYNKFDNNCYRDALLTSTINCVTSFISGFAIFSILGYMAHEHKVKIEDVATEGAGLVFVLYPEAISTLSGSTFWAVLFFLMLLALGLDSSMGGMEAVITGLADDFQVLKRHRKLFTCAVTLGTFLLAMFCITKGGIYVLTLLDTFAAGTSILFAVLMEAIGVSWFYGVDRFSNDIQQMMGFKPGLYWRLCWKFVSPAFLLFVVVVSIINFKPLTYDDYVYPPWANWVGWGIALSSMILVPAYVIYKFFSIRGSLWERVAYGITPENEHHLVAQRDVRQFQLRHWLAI

SERT [5] = biological target: T4, SERT (Rattus norvegicus, UniProt P31652); test: [3H]Citalopram Binding Assay, rat midbrain membranes; conditions: for Ki: rat brain membranes, read-out: SERT [3H]citalopram Ki ± SEM
T4 construct: Membranes from frozen rat midbrain were homogenized; from tissue; host or cells: rat midbrain membranes
T4 sequence (P31652 whole entry): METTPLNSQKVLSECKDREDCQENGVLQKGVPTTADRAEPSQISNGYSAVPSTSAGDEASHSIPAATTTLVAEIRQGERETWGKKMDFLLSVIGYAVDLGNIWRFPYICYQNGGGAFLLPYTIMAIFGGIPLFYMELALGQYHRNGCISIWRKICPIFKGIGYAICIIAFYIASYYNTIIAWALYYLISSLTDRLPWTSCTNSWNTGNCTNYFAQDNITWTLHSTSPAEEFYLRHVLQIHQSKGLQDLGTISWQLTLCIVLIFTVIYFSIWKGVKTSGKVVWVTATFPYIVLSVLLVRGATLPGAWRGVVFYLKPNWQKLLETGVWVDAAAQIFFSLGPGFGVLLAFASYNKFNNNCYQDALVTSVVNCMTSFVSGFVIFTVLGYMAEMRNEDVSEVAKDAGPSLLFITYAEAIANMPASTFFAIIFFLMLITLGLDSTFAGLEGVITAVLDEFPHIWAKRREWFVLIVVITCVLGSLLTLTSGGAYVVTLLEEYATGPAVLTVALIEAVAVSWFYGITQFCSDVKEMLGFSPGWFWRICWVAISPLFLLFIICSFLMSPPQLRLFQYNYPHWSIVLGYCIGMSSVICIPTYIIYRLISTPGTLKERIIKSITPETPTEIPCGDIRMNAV

[6] = biological target: T5, dopaminergic transporter sites (Mus musculus, UniProt Q61327); test: In vivo binding of [125I]RTI-121 (displacement in striatum); conditions: mice
T5 construct: Whole brains were rapidly removed and striatum and cerebellum were dissected on ice; from tissue; host or cells: mouse striatum, in vivo occupancy
T5 sequence (Q61327 whole entry): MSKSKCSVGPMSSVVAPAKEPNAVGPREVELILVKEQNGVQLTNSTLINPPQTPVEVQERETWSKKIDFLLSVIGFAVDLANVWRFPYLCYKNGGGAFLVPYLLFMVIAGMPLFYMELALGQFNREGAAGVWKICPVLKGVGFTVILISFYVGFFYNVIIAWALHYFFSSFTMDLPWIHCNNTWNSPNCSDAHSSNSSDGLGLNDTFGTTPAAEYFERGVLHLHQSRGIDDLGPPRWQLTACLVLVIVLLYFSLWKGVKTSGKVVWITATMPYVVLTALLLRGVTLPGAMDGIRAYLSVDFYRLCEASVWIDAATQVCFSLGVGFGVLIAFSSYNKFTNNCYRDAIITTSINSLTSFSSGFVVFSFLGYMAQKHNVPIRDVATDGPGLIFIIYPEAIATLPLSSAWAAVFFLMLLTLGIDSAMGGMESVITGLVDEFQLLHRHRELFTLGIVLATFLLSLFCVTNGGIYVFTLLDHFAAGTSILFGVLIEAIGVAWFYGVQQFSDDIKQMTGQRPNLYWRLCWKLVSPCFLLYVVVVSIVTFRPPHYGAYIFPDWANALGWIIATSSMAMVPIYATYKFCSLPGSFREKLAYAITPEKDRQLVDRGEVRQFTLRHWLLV
Excerpt: In vivo binding of [^125I]RTI-121. Each animal received an i.v. injection of 2 μCi of [^125I]RTI-121. Two hours after administration of [^125I]RTI-121, the animals were sacrificed by cervical dislocation. In each mouse, displacement of [^125I]RTI-121 was examined by giving an i.p. injection of one of the displacers at various doses and times relative to sacrifice, Displacement by test drugs at various doses was examined at various times after their injection, with each data point determined in sets of approximately six mice. Whole brains were rapidly removed and striatum and cerebellum were dissected on ice.
Regional radioactivity levels were divided by weight (gram) of the tissue (CPM/tissue weight). Specific binding was calculated as CPM/tissue weight in striatum divided by cerebellum minus 1 (S/C−1), which is based on the observation that dopaminergic transporter sites are highly concentrated in the striatum and relatively absent in the cerebellum. These values were expressed as a percentage of specific binding after vehicle injection. Data were analyzed using two-way analysis of variance (ANOVA), and a post-hoc Tukey's test was used to determine significance of effects for individual doses at different time periods following IP injection of compound 1a (FIG. 3A), 1b (FIG. 3B), MFZ 2-74 (R^1=Me; R^2,3=F; R^4=CO2-^iPr) (FIG. 3C), 15 (FIG. 3D), and 14 (FIG. 3E). […]

[7] = Model For Reducing Effect of Nicotine (nicotine discrimination); assay type: in vivo, rat; conditions: rats; dose 3.0 mg/kg; nicotine only control 50%
Excerpt: Model For Reducing Effect of Nicotine. Food-deprived rats were trained to press one lever for a food pellet after nicotine administration and a second lever after vehicle administration. Pellets of food were delivered intermittently, so that every twentieth response produced food. Using this procedure, the only cue for the rat regarding which lever occasionally pays off with a food pellet, is the subjective effect of the nicotine. When the rats were accurately and reliably identifying the nicotine injections (approximately all of its responses on the lever that occasionally pays off after nicotine or saline), testing began. The rats were pretreated with a compound of Formula III before nicotine injection, and the experiment progressed as described above, except responses on either lever intermittently produced food. A 50% effective nicotine dose was reduced to low levels of effectiveness upon administration of a compound of Formula III.

SERT [8] = biological target: T4, SERT; conditions: read-out: SERT [3H]citalopram Ki ± SEM; cited from earlier work
NET [9] = biological target: T3, NET; conditions: read-out: NET [3H]nisoxetine Ki ± SEM; comparative data taken from Agoston et al. 1997; cited from earlier work
muscarinic M1 receptor [10] = biological target: T2, muscarinic M1 receptor; conditions: read-out: M1 [3H]pirenzepine Ki ± SEM; cited from earlier work
DAT [11] = biological target: T1, DAT; conditions: comparative data taken from Agoston et al. 1997; read-out: DAT [3H]WIN 35,428 Ki ± SEM; cited from earlier work
[12] = read-out: DAT [3H]WIN 35,428 Ki ± SEM
[13] = rat brain membranes, read-out: M1 [3H]pirenzepine Ki ± SEM
[14] = ratio of respective Ki values, greater than 1 = DAT selective

T1 sequence (P23977 whole entry): as the sequence (Q61327 whole entry) above, with P21S, V57A, S194A, R600H, V619L counted along it

| SMILES | Ki (DAT [1]; [12]) [nM] | Ki (muscarinic M1 receptor [2]; [13]) [nM] | Binding selectivity DAT/M1 (muscarinic M1 receptor [2]; [14]) | Binding selectivity DAT/NET (NET [3]; [14]) | Ki (SERT [5]) [nM] | Binding selectivity DAT/SERT (SERT [5]; [14]) | further results |
| --- | --- | --- | --- | --- | --- | --- | --- |
| CCOC(=O)C1C(OC(c2ccc(Cl)cc2)c2ccc(Cl)cc2)CC2CCC1N2C (racemic) [(±)-15] | – | – | – | – | – | – | Ki (DAT [1]; read-out: DAT binding Ki): 22 ± 0.84 nM |
| COC(=O)[C@@H]1C2CCC(C[C@@H]1OC(c1ccc(F)cc1)c1ccc(F)cc1)N2C (some centres unmarked) [Compound 1a] | 2.94 | 133 ± 4.16 | 45 | 91 | 689 ± 58.4 | 234 | Ki (NET [4]): 269 nM |
| COC(=O)C1C(OC(c2ccc(Cl)cc2)c2ccc(Cl)cc2)CC2CCC1N2C (racemic) [(±)-14] | – | – | – | – | – | – | Ki (DAT [1]; read-out: DAT binding Ki): 23.4 ± 1.5 nM |
| CCOC(=O)[C@@H]1C2CCC(C[C@@H]1OC(c1ccc(F)cc1)c1ccc(F)cc1)N2 (stereo partly drawn) [Compound 9, S-(+)-N-nor-2β-Carboethoxy-3α-[bis(4-fluorophenyl)methoxy]tropane] | 8.87 ± 1.02 | 17100 ± 2480 | – | 63 | 2150 ± 222 | 242 | – |
| CC(C)OC(=O)C1C(OC(c2ccc(F)cc2)c2ccc(F)cc2)CC2CCC1N2C (centres unmarked) [MFZ 2-74] | – | – | – | – | – | – | Time of maximal displacement of [125I]RTI-121 after injection ([6]; IP injection of displacer, striatum vs cerebellum, FIG. 3): not obtained; Time at which maximal displacement of [125I]RTI-121 would likely be obtained ([6]; IP injection, FIG. 3C, maximal displacement not obtained in the test): > 3 h |
| CCCCN1[C@@H]2CC[C@H]1C[C@@H](OC(c1ccc(F)cc1)c1ccc(F)cc1)C2 [Compound 12] | – | – | 41 | 153 | – | 139 | Effect (of a 50% effective nicotine dose after pretreatment) [7]: 2.67%; Ki (SERT [8]): 1350 ± 151 nM; Ki (NET [9]): 1490 ± 190 nM; Ki (muscarinic M1 receptor [10]): 399 ± 26.8 nM; Ki (DAT [11]): 9.7 ± 0.91 nM |
| C=CCN1C2CCC1[C@@H](C(=O)OCC)[C@@H](OC(c1ccc(F)cc1)c1ccc(F)cc1)C2 (stereo partly drawn) [Compound 11, S-(+)-N-Allyl-2β-carboethoxy-3α-[bis(4-fluorophenyl)methoxy]tropane] | 11 ± 0.94 | 11400 ± 1650 | 1036 | 85 | 2280 ± 125 | 207 | – |
| CCCCN1C2CCC1[C@@H](C(=O)OCC)[C@@H](OC(c1ccc(F)cc1)c1ccc(F)cc1)C2 (stereo partly drawn) [Compound 10, S-(+)-N-Butyl-2β-carboethoxy-3α-[bis(4-fluorophenyl)methoxy]tropane] | 8.18 ± 0.17 | 3200 ± 298 | 391 | 71 | 2500 ± 327 | 305 | – |
| COC(=O)/C=C/[C@@H]1C2CCC(C[C@@H]1OC(c1ccc(F)cc1)c1ccc(F)cc1)N2C (stereo partly drawn) [Compound 5, S-(+)-2β-(2′-(methoxycarbonyl)eth-1′-enyl)-3α-[bis(4-fluorophenyl)methoxy]tropane] | 4.69 ± 0.6 | 1380 ± 81 | 278 | 54 | 572 ± 51 | 115 | Ki (DAT [1]): 4.96 nM |
| C=C[C@@H]1C2CCC(C[C@@H]1OC(c1ccc(F)cc1)c1ccc(F)cc1)N2C (stereo partly drawn) [Compound 4, S-(+)-2β-Ethenyl-3α-[bis(4-fluorophenyl)methoxy]tropane] | 1.81 | 163 ± 23.1 | 90 | 261 | 1790 ± 114 | 989 | – |
| COC(=O)CC[C@@H]1C2CCC(C[C@@H]1OC(c1ccc(F)cc1)c1ccc(F)cc1)N2C (stereo partly drawn) [Compound 6, S-(+)-2β-(2′-(Methoxycarbonyl)ethyl)-3α-[bis(4-fluorophenyl)methoxy]tropane] | 3.74 | 3110 ± 435 | 831 | 121 | 1070 ± 118 | 286 | – |
| CN1C2CCC1[C@@H](CO)[C@@H](OC(c1ccc(F)cc1)c1ccc(F)cc1)C2 (stereo partly drawn) [Compound 2, S-(+)-2β-hydroxymethyl-3α-[bis(4-fluorophenyl)methoxy]tropane] | – | 109 ± 15.1 | 31 | 279 | 910 ± 65 | 258 | Ki (DAT [1]): 3.52 ± 0.42 nM |
| CN1[C@@H]2CC[C@H]1[C@H](COC(=O)CCCc1ccc([N+](=O)[O-])cc1)[C@@H](OC(c1ccc(F)cc1)c1ccc(F)cc1)C2 [Compound 7, S-(+)-2β-{[4-(4′-Nitrophenyl)butyryl]oxymethyl}-3α-[bis(4-fluorophenyl)methoxy]tropane] | – | – | – | – | 3780 ± 390 | – | Ki (muscarinic M1 receptor [2]): 708 ± 102 nM |
| CN1C2CCC1[C@@H](COC(=O)CCCc1ccc(N)cc1)[C@@H](OC(c1ccc(F)cc1)c1ccc(F)cc1)C2 (stereo partly drawn) [Compound 8, S-(−)-2β-{[4-(4′-Aminophenyl)butyryl]oxymethyl}-3α-[bis(4-fluorophenyl)methoxy]tropane] | 27.6 ± 0.85 | 342 ± 33.7 | reduced DAT/M1 selectivity | – | 1390 ± 145 | – | Binding selectivity DAT/M1 (muscarinic M1 receptor [2]): 12; Binding selectivity DAT/NET (NET [3]): 16; Binding selectivity DAT/SERT (SERT [5]): 50 |
| CCOC(=O)[C@@H]1C2CCC(C[C@@H]1OC(c1ccc(F)cc1)c1ccc(F)cc1)N2C (some centres unmarked) [Compound 1b] | 6.87 ± 0.33 | 1890 ± 132 | 275 | 91 | 1850 ± 270 | 269 | Ki (NET [4]): 629 ± 31 nM |
